Measured values taken from patent US5470872A, “Benzopyranols” (Beecham Group plc, priority 1988, dated 1995).

Assays:
[1] = tested on: guinea pig tracheal spiral preparations; assay: Bronchodilation in vitro; guinea pig tracheal spiral preparations; type: cell-based; conditions: Cavia porcellus, relaxation of guinea pig tracheal spirals, relative to total relaxation with 10^-3 M isoprenaline; for Emax: read-out: I.A (efficacy, Intrinsic Activity)
Experimental: (a) Bronchodilation in vitro; guinea pig tracheal spiral preparations
Male guinea pigs (300-600 g) were stunned by a blow to the head and bled from the carotid artery. The trachea was exposed, dissected free of connective tissue, and transferred to oxygenated krebs solution at 37° C. Next, spirals (2 per trachea) were prepared by cutting the whole trachea spirally along its longitudinal axis and then dividing this spiral lengthwise. Each preparation was mounted, using silk thread, in a 10 ml organ bath filled with krebs solution at 37° C. and bubbled with 5% CO2 with O2. The resting tension of the preparations was set at 2 g and changes in muscle tension were monitored isometrically by means of a UFI (2 oz) force and displacement transducer (Ormed Ltd) connected to a Linseis pen recorder. All preparations were allowed to equilibrate for 60 minutes. During this equilibration period the preparations were washed by upward displacement at 15 minute intervals and, if necessary, the resting tension was readjusted to 2 g using a mechanical micromanipulator system.
Once a steady resting tension had been obtained, the preparations were dosed cumulatively with the test compound (10^-8 -2×10^-5 M), and finally a maximum relaxation achieved by addition of 10^-3 M isoprenaline. The fall in tension evoked by the test compound was expressed as a percentage of the total relaxation evoked in the presence of 10^-3 M isoprenaline. Appropriate concentration-relaxation curves were then constructed and values for potency (IC50) and efficacy (Intrinsic Activity, I.A.) were obtained.
The composition of Krebs solution is: sodium chloride 118.07 mM, sodium hydrogen carbonate 26.19 mM, potassium chloride 4.68 mM, potassium orthophosphate 1.18 mM, magnesium sulphate septahydrate 1.8 mM and calcium chloride 2.52 mM; pH ca. 7.45.

[2] = tested on: Spontaneously hypertensive rats; assay: Blood pressure lowering activity, tail cuff method, spontaneously hypertensive rats; type: in vivo, rat
Experimental: Blood Pressure Lowering Activity
Systolic blood pressures were recorded by a modification of the tail cuff method described by I. M. Claxton, M. G. Palfreyman, R. H. Poyser, R. L. Whiting, European Journal of Pharmacology, 37,179 (1976). A W+W BP recorder, model 8005 was used to display pulses. Prior to all measurements rats were placed in a heated environment (33.5°±0.5° C.) before transfer to a restraining cage. Each determination of blood pressure was the mean of at least 6 readings. Spontaneously hypertensive rats (ages 12-18 weeks) with systolic blood pressures >180 mmHg were considered hypertensive.

SMILES	IC50 [1]	Emax [1]	also measured
CC1(C)Oc2ccc(C(F)(F)C(F)(F)F)cc2[C@@H](N2CCCC2=O)[C@@H]1O (relative stereo) [Example 1, Trans-3,4-Dihydro-2,2-dimethyl-6-pentafluoroethyl-4-(2-oxopyrrolidin-1-yl)-2H-1-benzopyran-3-ol]	190 nM	88%	% change in systolic B.P. 1 h ([2]; 0.1 mg/kg p.o.): -19 ± 3%; % change in systolic B.P. 2 h ([2]; 0.1 mg/kg p.o.): -30 ± 2%; % change in systolic B.P. 4 h ([2]; 0.1 mg/kg p.o.): -28 ± 2%
CC1(C)Oc2ccc(C(F)(F)C(F)(F)F)cc2[C@@H](N2CCCCC2=O)[C@@H]1O (relative stereo) [Example 4, Trans-3,4-dihydro-2,2-dimethyl-4-(2-oxopiperidin-1-yl)-6-pentafluoroethyl-2H-1-benzopyran-3-ol]		90%	% change in systolic B.P. 1 h ([2]; 0.3 mg/kg p.o.): -36 ± 3%; % change in systolic B.P. 2 h ([2]; 0.3 mg/kg p.o.): -30 ± 1%; % change in systolic B.P. 4 h ([2]; 0.3 mg/kg p.o.): -26 ± 2%
CC1(C)Oc2ccc(C(F)(F)C(F)(F)F)cc2[C@@H](n2ccccc2=O)[C@@H]1O (relative stereo) [Example 5, Trans-3,4-dihydro-2,2-dimethyl-6-pentafluoroethyl-4-(2(1H)-pyridon-1-yl)-2H-1-benzopyran-3-ol]	150 nM	97%	
CC1(C)C=C(N2CCCC2=O)c2cc(C(F)(F)C(F)(F)F)ccc2O1 [Example 2, 2,2-Dimethyl-6-pentafluoroethyl-4-(2-oxopyrrolidin-1-yl)-2H-1-benzopyran]	98 nM	96%	% change in systolic B.P. 1 h ([2]; 1.0 mg/kg p.o.): -38 ± 2%; % change in systolic B.P. 2 h ([2]; 1.0 mg/kg p.o.): -24 ± 10%; % change in systolic B.P. 4 h ([2]; 1.0 mg/kg p.o.): -18 ± 6%
CC1(C)Oc2ccc(C(O)C(F)(F)F)cc2[C@@H](N2CCCC2=O)[C@@H]1O (some centres unmarked) [Example 3]	370 nM	89%	% change in systolic B.P. 1 h ([2]; 0.3 mg/kg p.o.): -40 ± 10%; % change in systolic B.P. 2 h ([2]; 0.3 mg/kg p.o.): -29 ± 7%; % change in systolic B.P. 4 h ([2]; 0.3 mg/kg p.o.): -25 ± 7%
CC1(C)Oc2ccc(C(F)(F)C(F)(F)F)cc2[C@@H](N2CCCCC2=O)[C@@H]1O [Example 6, (-)-Trans-3,4-dihydro-2,2-dimethyl-4-(2-oxopiperidin-1-yl)-6-pentafluoroethyl-2H-1-benzopyran-3-ol]		93%	
CC1(C)C=C(N2CCCCC2=O)c2cc(C(F)(F)C(F)(F)F)ccc2O1 [Example 8, 2,2-Dimethyl-6-pentafluoroethyl-4-(2-oxopiperidin-1-yl)-2H-1-benzopyran]	190 nM	88%	
CC1(C)C=C(n2ccccc2=O)c2cc(C(F)(F)C(F)(F)F)ccc2O1 [Example 9, 2,2-Dimethyl-6-pentafluoroethyl-4-(2(1H)pyridon-1-yl)-2H-1-benzopyran]	71.5 nM	84%	
